Test results from patent US10251889B2, “Substituted pyrazolo[1,5-a]pyrimidine compounds as Trk kinase inhibitors” (Array BioPharma, Inc., priority 2009, dated 2019).

Molecular target: Jak2 (human Jak2 kinase domain, amino acids 808-1132) (Homo sapiens (Human), UniProt O60674)
Experiment: Jak2 inhibition assay (Omnia kinase assay)
Type: biochemical
Settings: read-out: Jak2 Enzyme (% inhibition at 1000 nM), Table 1; 1000 nM test compound
Method: The assays described in Examples C, D, E and F for the determination of JAK1, JAK2, JAK3 and Tyk2 kinase activity, respectively, utilized the Omnia® Kinase fluorescence peptide substrate-based technology (Invitrogen). […] The reactions were therefore read at excitation 360 nm and emission was measured at 485 nm every 50 seconds for 45 minutes using a PerkinElmer EnVision Multilabel Plate Reader.
The final buffer conditions for each of the JAK1, JAK2, JAK3 and Tyk2 assays were as follows: 25 mM HEPES, pH 7.4, 10 mM MgCl2, 0.01% Triton X-100 and 1 mM DTT.
Two-μL aliquots of these were transferred to a fresh plate for a ten-fold intermediate dilution with assay buffer. Five-μL aliquots of the diluted compounds were then transferred to 20-μL of assay mixtures described in Examples C, D, E and F for a final concentration of DMSO of 2%. […] For each plate, percent of control (POC) values were calculated for each well according to the following equation:
where Xmax=Average Uninhibited Controls • Xmin=Average Background IC50's were estimated from the POC's using a standard 4-parameter logistic model:
where A=Minimum Y (Bottom Asymptote) • B=Maximum Y (Top Asymptote) • C=EC50 • D=Slope Factor • X=Compound Concentration (nM) • Y=POC
The IC50 is defined as the concentration of inhibitor at which the POC equals 50 for the fitted curve.
Compounds of Formula I were screened for their ability to inhibit Jak2 using the general enzyme inhibition assay method, in which the assay mixture contained 500 μM ATP, 10 μM Omnia® Y7 peptide (Catalog # IVGN KNZ3071C, Invitrogen Corporation, Carlsbad, Calif.) and 4 nM Jak2 in a total volume of 20 μL. Human Jak2 kinase domain comprising amino acids 808-1132 was purchased from Invitrogen Corporation, Carlsbad, Calif. (catalog # IVGN PV4210).

Chain of Jak2 (human Jak2 kinase domain, amino acids 808-1132) (O60674 808-1132): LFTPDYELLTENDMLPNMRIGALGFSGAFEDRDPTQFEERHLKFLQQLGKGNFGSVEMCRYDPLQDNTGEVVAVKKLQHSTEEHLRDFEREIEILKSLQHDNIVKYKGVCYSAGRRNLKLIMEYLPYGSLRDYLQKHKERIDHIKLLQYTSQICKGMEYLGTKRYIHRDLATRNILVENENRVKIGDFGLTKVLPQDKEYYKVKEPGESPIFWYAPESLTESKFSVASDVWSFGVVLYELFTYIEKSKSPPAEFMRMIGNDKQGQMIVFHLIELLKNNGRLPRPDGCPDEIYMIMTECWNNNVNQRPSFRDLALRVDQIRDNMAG

In order of rising inhibition at 1 µM:
1. COc1ncc(F)cc1[C@H]1CCCN1c1ccn2ncc(C(=O)N3CC(O)C3)c2n1 [Example 139, (R)-(5-(2-(5-fluoro-2-methoxypyridin-3-yl)pyrrolidin-1-yl)pyrazolo[1,5-a]pyrimidin-3-yl)(3-hydroxyazetidin-1-yl)methanone]  -0.4%
2. C[C@H](O)CNC(=O)c1cnn2ccc(N3CCC[C@@H]3c3cncc(F)c3)nc12 [Example 109, 5-((R)-2-(5-fluoropyridin-3-yl)pyrrolidin-1-yl)-N-((S)-2-hydroxypropyl)pyrazolo[1,5-a]pyrimidine-3-carboxamide]  -0.3%
3. O=C(NCCN1CCC(O)CC1)c1cnn2ccc(N3CCC[C@@H]3c3cc(F)ccc3F)nc12 [Example 170, 5-((R)-2-(2,5-difluorophenyl)pyrrolidin-1-yl)-N-(2-(4-hydroxypiperidin-1-yl)ethyl)pyrazolo[1,5-a]pyrimidine-3-carboxamide]  0.7%
4. O=C(NOCCO)c1cnn2ccc(N3CCC[C@@H]3c3cc(F)cnc3Cl)nc12 [Example 225, (R)-5-(2-(2-chloro-5-fluoropyridin-3-yl)pyrrolidin-1-yl)-N-(2-hydroxyethoxy)pyrazolo[1,5-a]pyrimidine-3-carboxamide]  2.7%
5. O=C(c1cnn2ccc(N3CCC[C@@H]3c3cncc(F)c3)nc12)N1CC(O)C1 [Example 108, (R)-(5-(2-(5-fluoropyridin-3-yl)pyrrolidin-1-yl)pyrazolo[1,5-a]pyrimidin-3-yl)(3-hydroxyazetid-1-yl)methanone]  2.8%
6. O=C(NCCO)c1cnn2ccc(N3CCC[C@@H]3c3cncc(F)c3)nc12 [Example 112, (R)-5-(2-(5-fluoropyridin-3-yl)pyrrolidin-1-yl)-N-(2-hydroxyethyl)pyrazolo[1,5-a]pyrimidine-3-carboxamide]  3.2%
7. O=C(c1cnn2ccc(N3CCC[C@@H]3c3cncc(F)c3)nc12)N1CCCCC1 [Example 137, (R)-(5-(2-(5-fluoropyridin-3-yl)pyrrolidin-1-yl)pyrazolo[1,5-a]pyrimidin-3-yl)(piperidin-1-yl)methanone]  3.6%
8. Cc1ncc(F)cc1[C@H]1CCCN1c1ccn2ncc(C(=O)N[C@@H]3CCC[C@H]3O)c2n1 [Example 197, 5-((R)-2-(5-fluoro-2-methylpyridin-3-yl)pyrrolidin-1-yl)-N-((1R,2R)-2-hydroxycyclopentyl)pyrazolo[1,5-a]pyrimidine-3-carboxamide]  3.6%
9. C[C@H](O)[C@H](CO)NC(=O)c1cnn2ccc(N3CCC[C@@H]3c3cc(F)ccc3F)nc12 [Example 175, 5-((R)-2-(2,5-difluorophenyl)pyrrolidin-1-yl)-N-((2S,3S)-1,3-dihydroxybutan-2-yl)pyrazolo[1,5-a]pyrimidine-3-carboxamide]  3.8%
10. O=C(N[C@H]1CCC[C@@H]1O)c1cnn2ccc(N3CCC[C@@H]3c3cncc(F)c3)nc12 [Example 103, 5-((R)-2-(5-fluoropyridin-3-yl)pyrrolidin-1-yl)-N-((1S,2S)-2-hydroxycyclopentyl)pyrazolo[1,5-a]pyrimidine-3-carboxamide]  4.5%
11. NC(=O)c1cnn2ccc(N3CCC[C@@H]3c3cc(F)cc(OCC(O)CO)c3)nc12 (stereo partly drawn) [Example 209, 5-((2R)-2-(3-(2,3-dihydroxypropoxy)-5-fluorophenyl)pyrrolidin-1-yl)pyrazolo[1,5-a]pyrimidine-3-carboxamide]  5.4%
12. CC(C)(C)NC(=O)c1cnn2ccc(N3CCC[C@@H]3c3cncc(F)c3)nc12 [Example 53, (R)—N-tert-butyl-5-(2-(5-fluoropyridin-3-yl)pyrrolidin-1-yl)pyrazolo[1,5-a]pyrimidine-3-carboxamide]  8.7%
13. COc1ncc(F)cc1[C@H]1CCCN1c1ccn2ncc(C(=O)NC[C@@H](C)O)c2n1 [Example 157, 5-((R)-2-(5-fluoro-2-methoxypyridin-3-yl)pyrrolidin-1-yl)-N-((R)-2-hydroxypropyl)pyrazolo[1,5-a]pyrimidine-3-carboxamide]  9.6%
14. Cc1cccnc1NC(=O)c1cnn2ccc(N3CCC[C@@H]3c3cc(F)ccc3F)nc12 [Example 3, (R)-5-(2-(2,5-difluorophenyl)pyrrolidin-1-yl)-N-(3-methylpyridin-2-yl)pyrazolo[1,5-a]pyrimidine-3-carboxamide]  10.1%
15. Cc1ncc(F)cc1[C@H]1CCCN1c1ccn2ncc(C(=O)N[C@H]3CC[C@H](O)C3)c2n1 [Example 196, 5-((R)-2-(5-fluoro-2-methylpyridin-3-yl)pyrrolidin-1-yl)-N-((1S,3S)-3-hydroxycyclopentyl)pyrazolo[1,5-a]pyrimidine-3-carboxamide]  10.6%
16. COCCOc1cc(F)cc([C@H]2CCCN2c2ccn3ncc(C(=O)NC4CC4)c3n2)c1 [Example 77, (R)—N-cyclopropyl-5-(2-(3-fluoro-5-(2-methoxyethoxy)phenyl)pyrrolidin-1-yl)pyrazole [1,5-a]pyrimidine-3-carboxamide]  15.3%
17. COc1ncc(F)cc1[C@H]1CCCN1c1ccn2ncc(C(=O)NC[C@H](C)O)c2n1 [Example 156, 5-((R)-2-(5-fluoro-2-methoxypyridin-3-y1)pyrrolidin-1-yl)-N-((S)-2-hydroxypropyl)pyrazolo[1,5-a]pyrimidine-3-carboxamide]  16.1%
18. O=C(N[C@H]1CC[C@H](O)C1)c1cnn2ccc(N3CCC[C@@H]3c3cncc(F)c3)nc12 [Example 105, 5-((R)-2-(5-fluoropyridin-3-yl)pyrrolidin-1-yl)-N-((1S,3S)-3-hydroxycyclopentyl)pyrazolo[1,5-a]pyrimidine-3-carboxamide]  18.7%
19. O=C(NC1CC1)c1cnn2ccc(N3CCC[C@@H]3c3cc(F)cc(OCC(O)CO)c3)nc12 (stereo partly drawn) [Example 208, N-cyclopropyl-5-((2R)-2-(3-(2,3-dihydroxypropoxy)-5-fluorophenyl)pyrrolidin-1-yl)pyrazolo[1,5-a]pyrimidine-3-carboxamide]  21.2%
20. O=C(NOCC1CC1)c1cnn2ccc(N3CCC[C@@H]3c3cc(F)ccc3F)nc12 [Example 66, (R)—N-(cyclopropylmethoxy)-5-(2-(2,5-difluorophenyl)pyrrolidin-1-yl)pyrazolo[1,5-a]pyrimidine-3-carboxamide]  24.7%
21. Cn1cc(F)cc([C@H]2CCCN2c2ccn3ncc(C(=O)Nc4cccnc4)c3n2)c1=O [Example 231, (R)-5-(2-(5-fluoro-1-methyl-2-oxo-1,2-dihydropyridin-3-yl)pyrrolidin-1-yl)-N-(pyridin-3-yl)pyrazolo[1,5-a]pyrimidine-3-carboxamide]  26.6%
22. O=C(NCCO)c1cnn2ccc(N3CCCC3c3cc(F)ccc3F)nc12 (stereo not shown) [Example 165, 5-(2-(2,5-difluorophenyl)pyrrolidin-1-yl)-N-(2-hydroxyethyl)pyrazolo[1,5-a]pyrimidine-3-carboxamide]  26.8%
23. O=C(NC1(CO)CC1)c1cnn2ccc(N3CCC[C@@H]3c3cc(F)ccc3F)nc12 [Example 16, (R)-5-(2-(2,5-difluorophenyl)pyrrolidin-1-yl)-N-(1-(hydroxymethyl)cyclopropyl)pyrazolo[1,5-a]pyrimidine-3-carboxamide]  31.7%
24. Cn1cc(F)cc([C@H]2CCCN2c2ccn3ncc(C(=O)NCC4CC4)c3n2)c1=O [Example 232, (R)-N-(cyclopropylmethyl)-5-(2-(5-fluoro-1-methyl-oxo-1,2-dihydropyridin-3-yl)pyrrolidin-1-yl)pyrazolo[1,5-a]pyrimidine-3-carboxamide]  31.9%
25. O=C(NC[C@H](O)CO)c1cnn2ccc(N3CCC[C@@H]3c3cc(F)ccc3C(F)(F)F)nc12 [Example 62, N—((S)-2,3-dihydroxypropyl)-5-((R)-2-(5-fluoro-2-(trifluoromethyl)phenyl)pyrrolidin-1-yl)pyrazolo[1,5-a]pyrimidine-3-carboxamide]  35.2%
26. O=C(NC1CCC1)c1cnn2ccc(N3CCC[C@@H]3c3cc(F)ccc3F)nc12 [Example 14, (R)—N-cyclobutyl-5-(2-(2,5-difluorophenyl)pyrrolidin-1-yl)pyrazolo[1,5-a]pyrimidine-3-carboxamide]  66.7%
27. C[C@H](NC(=O)c1cnn2ccc(N3CCC[C@@H]3c3cc(F)cn(C)c3=O)nc12)C1CC1 [Example 236, N-((S)-1-cyclopropylethyl)-5-((R)-2-(5-fluoro-1-methyl-2-oxo-1,2-dihydropyridin-3-yl)pyrrolidin-1-yl)pyrazolo[1,5-a]pyrimidine-3-carboxamide]  69.1%
28. NS(=O)(=O)N1CCC(NC(=O)c2cnn3ccc(N4CCC[C@@H]4c4cc(F)ccc4F)nc23)CC1 [Example 45, (R)-5-(2-(2,5-difluorophenyl)pyrrolidin-1-yl)-N-(1-sulfamoylpiperidin-4-yl)pyrazolo[1,5-a]pyrimidine-3-carboxamide]  84%
